Laboratory results reported in ChEMBL document CHEMBL1201862, “PubChem BioAssay data set” (2004).
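Where inhibition never reached the appropriate level, the endpoint shown equals the highest concentration tested. Otherwise, values were interpolated linearly from a five-concentration, 48-hour dose response in 96-well plates. Abbreviation: GI50, concentration required for 50% inhibition of growth.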 Active and inactive are the calls of the source. Cut-off read from the data, not from the text of the source: active = GI50 up to about 1.1 µM and inactive = higher.

Key:
Assay in all cases: NCI tumour cell line growth inhibition, 48 h
A498 = system: A498
IGROV-1 = system: IGROV-1
OVCAR-3 = system: OVCAR-3
COLO 205 = system: COLO 205
SR = system: SR
NCI/ADR-RES = system: NCI/ADR-RES
RXF 393 = system: RXF 393
MDA-MB-231 = system: MDA-MB-231
NCI-H460 = system: NCI-H460
SNB-75 = system: SNB-75
MDA-MB-435 = system: MDA-MB-435
ACHN = system: ACHN
KM12 = system: KM12
SK-MEL-28 = system: SK-MEL-28
786-0 = system: 786-0
PC-3 = system: PC-3
M14 = system: M14
OVCAR-4 = system: OVCAR-4
CAKI-1 = system: CAKI-1
SK-MEL-2 = system: SK-MEL-2

SMILES	GI50 (A498)	GI50 (IGROV-1)	GI50 (OVCAR-3)	GI50 (COLO 205)	GI50 (SR)	GI50 (NCI/ADR-RES)	GI50 (RXF 393)	GI50 (MDA-MB-231)	GI50 (NCI-H460)	GI50 (SNB-75)	GI50 (MDA-MB-435)	GI50 (ACHN)	GI50 (KM12)	GI50 (SK-MEL-28)	GI50 (786-0)	GI50 (PC-3)	GI50 (M14)	GI50 (OVCAR-4)	GI50 (CAKI-1)	GI50 (SK-MEL-2)
CN1N=C(N)c2cn(C3OC(COP(=O)(O)O)C(O)C3O)c3ncnc1c23 (stereo not drawn)	33.7 µM (inactive)	0.935 µM (active)	35.2 µM (inactive)	106 µM (inactive)	10.8 µM (inactive)	4.08 µM (inactive)	14 µM (inactive)	10.9 µM (inactive)	52.8 µM (inactive)	5.33 µM (inactive)	34.3 µM (inactive)	3.16 µM (inactive)	2980 µM (inactive)	194 µM (inactive)	20.5 µM (inactive)	0.836 µM (active)	7.33 µM (inactive)	5.86 µM (inactive)	1.18 µM (inactive)	8.26 µM (inactive)
CCOC(=O)COc1cc(-c2ccccc2)nc2cc(F)ccc12	> 100 µM (inactive)	> 100 µM (inactive)	> 100 µM (inactive)	> 100 µM (inactive)	> 100 µM (inactive)	> 100 µM (inactive)	> 100 µM (inactive)	> 100 µM (inactive)		> 100 µM (inactive)	> 100 µM (inactive)		> 100 µM (inactive)	> 100 µM (inactive)	> 100 µM (inactive)	> 100 µM (inactive)	> 100 µM (inactive)	42 µM (inactive)	> 100 µM (inactive)	> 100 µM (inactive)
Cc1cc(C)c2c(=O)cc(-c3ccccc3)[nH]c2c1	1.35 µM (inactive)	2.86 µM (inactive)	3.47 µM (inactive)	1.17 µM (inactive)	2.01 µM (inactive)	1.61 µM (inactive)	1.61 µM (inactive)	8.22 µM (inactive)	1.92 µM (inactive)	3.16 µM (inactive)	0.211 µM (active)	4.65 µM (inactive)	0.548 µM (active)	2.52 µM (inactive)	2.07 µM (inactive)	2.06 µM (inactive)	3.37 µM (inactive)	9.71 µM (inactive)	3.29 µM (inactive)	8.17 µM (inactive)
CC[C@@]1(O)C(=O)OCc2c1cc1n(c2=O)Cc2c-1nc1ccccc1c2/C=N\NC(=O)C(N)CC(C)C (stereo partly drawn)	0.0314 µM (active)	0.233 µM (active)	0.297 µM (active)	0.708 µM (active)	< 0.01 µM (active)	0.0215 µM (active)	< 0.0143 µM (active)	1.25 µM (inactive)	< 0.01 µM (active)	< 0.01 µM (active)	0.143 µM (active)	< 0.01 µM (active)	0.152 µM (active)	0.605 µM (active)	< 0.01 µM (active)	< 0.0188 µM (active)	< 0.0128 µM (active)	0.44 µM (active)	< 0.01 µM (active)	0.6 µM (active)
CO/N=C1/C(n2[nH]c(=O)n(-c3ccccc3)c2=O)C2C=CC1n1c(=O)n(-c3ccccc3)c(=O)n12 (stereo not drawn)	> 100 µM (inactive)	> 100 µM (inactive)	> 100 µM (inactive)	> 100 µM (inactive)	> 100 µM (inactive)	> 100 µM (inactive)	> 100 µM (inactive)	> 100 µM (inactive)	> 100 µM (inactive)	> 100 µM (inactive)	> 100 µM (inactive)		> 100 µM (inactive)	> 100 µM (inactive)	> 100 µM (inactive)	> 100 µM (inactive)	> 100 µM (inactive)	> 100 µM (inactive)	> 100 µM (inactive)	> 100 µM (inactive)
COc1ccc(N2CN3OC(=O)N(c4ccc(OC)cc4)[C@@]3(c3ccccc3)C2)cc1	19.5 µM (inactive)	20.7 µM (inactive)	13.1 µM (inactive)	13.4 µM (inactive)	2.79 µM (inactive)	9.48 µM (inactive)	19.9 µM (inactive)	10 µM (inactive)	16.6 µM (inactive)	14.4 µM (inactive)	2.4 µM (inactive)	61.9 µM (inactive)	6.46 µM (inactive)	34.5 µM (inactive)	51.1 µM (inactive)	10.8 µM (inactive)	34.4 µM (inactive)	20.3 µM (inactive)	19.1 µM (inactive)	5.51 µM (inactive)
Cc1ccc(-n2c(O)c(C#N)c3[nH]nc(N)c3c2=O)cc1	> 100 µM (inactive)	> 100 µM (inactive)	> 100 µM (inactive)	> 100 µM (inactive)	> 100 µM (inactive)	> 100 µM (inactive)	> 100 µM (inactive)	> 100 µM (inactive)	> 100 µM (inactive)	> 100 µM (inactive)	> 100 µM (inactive)		> 100 µM (inactive)	> 100 µM (inactive)	> 100 µM (inactive)	> 100 µM (inactive)	> 100 µM (inactive)	> 100 µM (inactive)	> 100 µM (inactive)	> 100 µM (inactive)
CC1=NN(c2cccc(Cl)c2)C(=N/c2nc3ccccc3s2)/C1=C\c1cccs1	28.8 µM (inactive)	36 µM (inactive)	13 µM (inactive)		19.5 µM (inactive)	20.9 µM (inactive)	51.3 µM (inactive)	38.9 µM (inactive)	35.6 µM (inactive)	28 µM (inactive)	55.6 µM (inactive)	39 µM (inactive)	43.8 µM (inactive)	36.2 µM (inactive)	87.3 µM (inactive)	32.1 µM (inactive)	70.1 µM (inactive)	35.6 µM (inactive)	52.7 µM (inactive)	25.9 µM (inactive)
N=C(N)NS(=O)(=O)c1ccc(NC(=O)c2ccc3nc4ccccc4c(Nc4ccc(S(N)(=O)=O)cc4)c3c2)cc1	> 100 µM (inactive)	> 100 µM (inactive)	> 100 µM (inactive)	> 100 µM (inactive)	> 100 µM (inactive)	> 100 µM (inactive)	> 100 µM (inactive)	> 100 µM (inactive)	> 100 µM (inactive)	> 100 µM (inactive)	> 100 µM (inactive)	> 100 µM (inactive)	> 100 µM (inactive)	> 100 µM (inactive)	> 100 µM (inactive)	> 100 µM (inactive)	> 100 µM (inactive)	> 100 µM (inactive)	> 100 µM (inactive)	> 100 µM (inactive)
c1ccc2c(c1)N=c1cc3c(cc1N2)=NC12CCCCC1CC1=C(CCCC1)N32 (stereo not drawn)	6.52 µM (inactive)	3.4 µM (inactive)	1.74 µM (inactive)	1.79 µM (inactive)	0.425 µM (active)	4.57 µM (inactive)	1.39 µM (inactive)	4.16 µM (inactive)	6.17 µM (inactive)	2.59 µM (inactive)	1.88 µM (inactive)	2.81 µM (inactive)	2.37 µM (inactive)	3.3 µM (inactive)	2.89 µM (inactive)	2.76 µM (inactive)	2.52 µM (inactive)	2.15 µM (inactive)	6.58 µM (inactive)	3.44 µM (inactive)
O=[N+]([O-])c1cccc2nccc(NCCN3CCOCC3)c12	13.2 µM (inactive)	17.4 µM (inactive)	14.2 µM (inactive)	19.6 µM (inactive)	10.1 µM (inactive)	29.4 µM (inactive)	11.6 µM (inactive)	21.7 µM (inactive)	6.87 µM (inactive)	16.5 µM (inactive)	22.9 µM (inactive)	22.4 µM (inactive)	10.5 µM (inactive)	17.9 µM (inactive)	25.2 µM (inactive)	9.64 µM (inactive)	15.9 µM (inactive)	8.99 µM (inactive)	2.6 µM (inactive)	14.7 µM (inactive)
CCNc1cc2c3c(c1)CCCN3CCC2	23.3 µM (inactive)	15.6 µM (inactive)	2.32 µM (inactive)	12.1 µM (inactive)	4.22 µM (inactive)	21 µM (inactive)	72.8 µM (inactive)	6.93 µM (inactive)	15.1 µM (inactive)	18.1 µM (inactive)	3.44 µM (inactive)	19.6 µM (inactive)	15.7 µM (inactive)	31.3 µM (inactive)	9.66 µM (inactive)	16.7 µM (inactive)	26.4 µM (inactive)	13 µM (inactive)	31.6 µM (inactive)	15.3 µM (inactive)
CN(C)CCCNC(=O)c1c(O)c2ccccc2n(C)c1=O	> 100 µM (inactive)	> 100 µM (inactive)	> 100 µM (inactive)	39.5 µM (inactive)	41.5 µM (inactive)	41.2 µM (inactive)	35.5 µM (inactive)	86.5 µM (inactive)	42 µM (inactive)	63.7 µM (inactive)	61.8 µM (inactive)	43.8 µM (inactive)	> 100 µM (inactive)	74.6 µM (inactive)	65.3 µM (inactive)	67.6 µM (inactive)		78.3 µM (inactive)	41.4 µM (inactive)	64.1 µM (inactive)
COC(=O)c1ccc2cc(O)c(O)cc2c1	30.8 µM (inactive)	26.7 µM (inactive)	31.1 µM (inactive)	37.9 µM (inactive)	13.2 µM (inactive)	25.6 µM (inactive)	48.2 µM (inactive)	60.7 µM (inactive)		90.8 µM (inactive)	34.7 µM (inactive)	32.7 µM (inactive)	30.9 µM (inactive)	46.9 µM (inactive)	41.8 µM (inactive)	32.4 µM (inactive)	26.3 µM (inactive)	43.6 µM (inactive)	78.2 µM (inactive)	39.5 µM (inactive)
